Source: patent publication US20240225985A1, “BRIGHTENING COMPOSITIONS AND METHODS OF USE” (Alastin Skincare, Inc., priority 2021, published 2024)
Entries after “also recorded” stand apart in the source; their conditions may differ.

Assays:
keratinocytes = assay: Gene expression study (RNA sequencing) in keratinocytes; type: cell-based, human; settings: 24 hours of compound exposure
Protocol: (§1) Four cell types associated with pigmentation pathways—melanocytes, keratinocytes, fibroblasts and endothelial (HUVEC) cells—were analyzed for gene expression.
(§2) To simulate the UV stimulatory pigmentation pathway process, melanocytes were pre-treated with PGE2, a normal direct consequence of UV light exposure usually emanating from exposed keratinocytes. After the 48 hour attachment culture, these melanocytes were induced with 10 uM PGE2 in melanocyte media for 24 hrs. The four primary human adult dermal cell lines were cultured and plated in well plates in triplicate and then treated with 11 different compound treatments (plus DMSO control). After 48 hours of attachment culture, the remaining fibroblasts, HUVECs and keratinocytes were treated with the test compounds listed in Table 8.
(§3) After 24 hours of compound exposure, RNA lysate preparation was carried out and samples were shipped to MedGenome for RNA extraction, library construction and sequencing to 25M paired end 100 bp reads per sample. Library prep and sequencing was completed at MedGenome.

melanocytes = assay: In vitro melanocyte comparative analysis via absorbance readings (melanin production); type: cell-based; settings: for Absorbance 405 nm / Absorbance 490 nm / Absorbance 492 nm: 4 days, control = 0.0 row; for Regulation of melanogenesis (decreased absorption denoting decreased melanin formation): melanocytes, summary of Table 10
Protocol: Melanocytes were cultured in 6-well plates containing growth media. Once confluent, 2 concentrations of each of the 10 compounds were added to the cells in triplicate wells for 4 days. There were a total of eleven 6-well plates, one for each compound treatment and one for the vehicle control. Absorbance readings were taken on the lysates prepared for each well of the 6-well plates, normalizing for cells counts. The model was initially tested for accuracy and validated using hexapeptide-12 in view of strong gene expression results with melanocyte cell line in the first study—confirmation of decreased stimulation was obtained. Additional validation was carried out using MSH addition to media to confirm increased stimulation of melanin production. The following compounds used in this study are seen in Table 9.

[1] = tested on: endothelial (HUVEC) cells; assay: Gene expression study (RNA sequencing) in endothelial (HUVEC) cells; type: cell-based, human; settings: 24 hours of compound exposure
Protocol: as §1, §2, §3

[2] = higher concentration (Lactoferrin 1000, HEX-11 200, Phosphatidylserine 500, Silymarin 20, Sesamol 100, Tranexamic Acid 1000, HEX-12 4.9, ug/mL or ug/uL; Phytoene/Phytofluene 5.00%)
[3] = lower concentration (Lactoferrin 500, HEX-11 100, Phosphatidylserine 250, Silymarin 10, Sesamol 50, Tranexamic Acid 500, HEX-12 2.9, ug/mL or ug/uL; Phytoene/Phytofluene 2.50%)

Substance	melanogenesis gene activity in keratinocytes (keratinocytes)	Absorbance 405 nm (melanocytes; [2])	Absorbance 490 nm (melanocytes; [2])	Absorbance 492 nm (melanocytes; [2])	Absorbance 405 nm (melanocytes; [3])	Absorbance 490 nm (melanocytes; [3])	Absorbance 492 nm (melanocytes; [3])	Regulation of melanogenesis (decreased absorption denoting decreased melanin formation) (melanocytes)	activity on EDN1 and other melanogenic genes in HUVECs [1]
Hexapeptide-11	active ingredient in melanogenesis activity; also recorded: significant effects on melanogenesis activity	0.338	0.227	0.163	0.461	0.288	0.209	Regulation of melanogenesis was observed	
Phosphatidylserine		0.61	0.38	0.288	0.686	0.438	0.338	Regulation of melanogenesis was observed	potent activity; also recorded: significant effects on melanogenesis activity
